# PubChem BioAssay AID198 (DTP/NCI, 2004)
# “And” between values parts separate entries of the source, which are not always exact repeats. Identical values can stand only once. Toxic doses and inconclusive results are not listed. *1 amine or outer side, *2 acyl side, *3 side chain or, on linkers, in order; H or OH if unused. Where a SMILES comes first, the peptide text is derived from it. Bridges are numbered along the chain shown (N, C = ends). Roman numbers before positions name the chains, in order. [ ]: non-standard residue; d: D form. Actinocin(9to1) = Cc1c2oc3c(C)ccc(C(=O)[*:1])c3nc-2c(C(=O)[*:2])c(N)c1=O; aThr = C[C@H](O)[C@H](N)C(=O)O; NMeV = CN[C@H](C(=O)O)C(C)C; Sar = CNCC(=O)O
# System: B16 melanoma ip, C57BL/6 mice, median survival T/C
# Assay: NCI In Vivo Anticancer Drug Screen. Data for tumor model B16 Melanoma (intraperitoneal) in C57BL/6 mice
# Conditions: endpoint: median survival time, higher = longer survival
# Protocol: The antitumor activity of compounds was measured in mice bearing transplantable tumors. Survival or tumor size were measured and the results are expressed as the measurement made in the treated group (T) divided by the measurement made in the vehicle treated control group (C). The tumor model used in this assay is B16 Melanoma (intraperitoneal) in C57BL/6 mice
# [1] = dose: 25.0 mg/kg/injection, schedule: Q01DX009 (ip), vehicle: saline with Tween-80
# [2] = dose: 50.0 mg/kg/injection, schedule: Q01DX009 (ip), vehicle: saline with Tween-80
# [3] = dose: 12.5 mg/kg/injection, schedule: Q01DX009 (ip), vehicle: saline
# [4] = dose: 25.0 mg/kg/injection, schedule: Q01DX009 (ip), vehicle: saline
# [5] = dose: 100.0 mg/kg/injection, schedule: Q01DX009 (ip), vehicle: saline
# [6] = dose: 1.25 mg/kg/injection, schedule: Q01DX009 (ip), vehicle: saline
# [7] = dose: 15.0 mg/kg/injection, schedule: Q01DX009 (ip), vehicle: saline
# [8] = dose: 125.0 mg/kg/injection, schedule: Q01DX009 (ip), vehicle: saline
# [9] = dose: 250.0 mg/kg/injection, schedule: Q01DX009 (ip), vehicle: saline
# [10] = dose: 500.0 mg/kg/injection, schedule: Q01DX009 (ip), vehicle: saline
# [11] = dose: 3.13 mg/kg/injection, schedule: Q01DX009 (ip), vehicle: saline
# [12] = dose: 6.25 mg/kg/injection, schedule: Q01DX009 (ip), vehicle: saline
# [13] = dose: 50.0 mg/kg/injection, schedule: Q01DX009 (ip), vehicle: saline
# [14] = dose: 12.5 mg/kg/injection, schedule: Q01DX009 (ip), vehicle: saline with Tween-80
structure (smiles),measurement,setting,value
"Cc1c2oc3c(C)ccc(C(=O)N[C@@H]4C(=O)N[C@H](C(C)C)C(=O)N5CCC[C@H]5C(=O)N(C)CC(=O)N(C)[C@@H](C(C)C)C(=O)O[C@H]4C)c3nc-2c(C(=O)N[C@@H]2C(=O)N[C@H](C(C)C)C(=O)N3CCC[C@H]3C(=O)N(C)CC(=O)N(C)[C@@H](C(C)C)C(=O)O[C@H]2C)c(N)c1=O (I: [aThr][dV]P[Sar][NMeV] / II: [aThr][dV]P[Sar][NMeV]; ester I:1-I:C, II:1-II:C; linker I:N-II:N via Actinocin(9to1))",T/C,"dose: 0.03 mg/kg/injection, schedule: Q01DX009 (ip), vehicle: saline",150 % of control and 165 % of control
same,T/C,"dose: 0.05 mg/kg/injection, schedule: Q01DX009 (ip), vehicle: saline",156 % of control and 164 % of control and 193 % of control
same,T/C,"dose: 0.1 mg/kg/injection, schedule: Q01DX009 (ip), vehicle: saline",203 % of control
same,T/C,"dose: 0.2 mg/kg/injection, schedule: Q01DX009 (ip), vehicle: saline",117 % of control
CC1=C2C(=CC(C)(C)[C@@H]2O)C(=O)[C@](C)(O)C12CC2,T/C,"dose: 0.17 mg/kg/injection, schedule: Q01DX009 (ip), vehicle: saline",110 % of control
same,T/C,"dose: 0.26 mg/kg/injection, schedule: Q01DX009 (ip), vehicle: saline",106 % of control
same,T/C,"dose: 0.4 mg/kg/injection, schedule: Q01DX009 (ip), vehicle: saline",106 % of control
same,T/C,"dose: 0.6 mg/kg/injection, schedule: Q01DX009 (ip), vehicle: saline",106 % of control
O=C1CN(CCN2CC(=O)NC(=O)C2)CC(=O)N1,T/C,"dose: 30.0 mg/kg/injection, schedule: Q01DX009 (ip), vehicle: saline",150 % of control
CC(C)S(=O)(=O)/C(Cl)=C(/Cl)C(Cl)=C(Cl)Cl,T/C,[1],94 % of control
same,T/C,[2],97 % of control
Nc1ccc(Cl)cc1N,T/C,"dose: 12.5 mg/kg/injection, schedule: Q01DX009 (ip), vehicle: other",106 % of control
same,T/C,"dose: 25.0 mg/kg/injection, schedule: Q01DX009 (ip), vehicle: other",100 % of control
same,T/C,"dose: 50.0 mg/kg/injection, schedule: Q01DX009 (ip), vehicle: other",100 % of control
same,T/C,"dose: 100.0 mg/kg/injection, schedule: Q01DX009 (ip), vehicle: other",90 % of control
C[C@]12C=CC(=O)C=C1CC[C@@H]1[C@@H]2C(=O)C[C@@]2(C)[C@H]1CC[C@]2(O)C(=O)CO,T/C,[3],100 % of control
same,T/C,[4],100 % of control
same,T/C,[5],88 % of control
CN[C@H]1CCc2cc(OC)c(OC)c(OC)c2-c2ccc(OC)c(=O)cc21,T/C,[6],100 % of control
same,T/C,"dose: 1.3 mg/kg/injection, schedule: Q01DX009 (ip), vehicle: saline",100 % of control
same,T/C,"dose: 2.5 mg/kg/injection, schedule: Q01DX009 (ip), vehicle: saline",100 % of control and 103 % of control
same,T/C,"dose: 5.0 mg/kg/injection, schedule: Q01DX009 (ip), vehicle: saline",93 % of control and 113 % of control
same,T/C,"dose: 10.0 mg/kg/injection, schedule: Q01DX009 (ip), vehicle: saline",93 % of control
Cc1nc(N)sc1CCCl,T/C,"dose: 10.0 mg/kg/injection, schedule: Q01DX009 (ip), vehicle: saline sonified",100 % of control
same,T/C,"dose: 20.0 mg/kg/injection, schedule: Q01DX009 (ip), vehicle: saline sonified",107 % of control
same,T/C,"dose: 40.0 mg/kg/injection, schedule: Q01DX009 (ip), vehicle: saline sonified",103 % of control
same,T/C,"dose: 80.0 mg/kg/injection, schedule: Q01DX009 (ip), vehicle: saline sonified",107 % of control
O=NN(CCCl)C(=O)NCCCl,T/C,"dose: 7.5 mg/kg/injection, schedule: Q01DX009 (ip), vehicle: saline",164 % of control and 213 % of control
same,T/C,[7],121 % of control
O=C(N[C@H](CO)[C@H](O)c1ccc([N+](=O)[O-])cc1)C(Cl)Cl,T/C,"dose: 62.5 mg/kg/injection, schedule: Q01DX009 (ip), vehicle: saline",106 % of control and 114 % of control
same,T/C,[8],106 % of control and 107 % of control
same,T/C,[9],106 % of control and 117 % of control
same,T/C,[10],106 % of control and 107 % of control
CCCCc1ccc(NC(=O)N(CCCl)N=O)cc1,T/C,[11],200 % of control
same,T/C,[12],210 % of control
O=NN(CCCl)C(=O)Nc1ccc(CCCl)cc1,T/C,[11],267 % of control
same,T/C,[12],217 % of control
CN1Cc2c(ccc3c2OCO3)[C@@H]2[C@H](O)Cc3cc4c(cc3[C@@H]21)OCO4,T/C,"dose: 62.5 mg/kg/injection, schedule: Q01DX009 (ip), vehicle: saline with Tween-80",107 % of control
same,T/C,"dose: 125.0 mg/kg/injection, schedule: Q01DX009 (ip), vehicle: saline with Tween-80",110 % of control
same,T/C,"dose: 250.0 mg/kg/injection, schedule: Q01DX009 (ip), vehicle: saline with Tween-80",117 % of control
COc1cc(/C=N\O)nc(-c2ccccn2)c1,T/C,[4],100 % of control
same,T/C,[13],106 % of control
same,T/C,[5],93 % of control
CO[C@H](C(=O)[C@@H](O)[C@@H](C)O)[C@@H]1Cc2cc3cc(OC4CC(OC5CC(O)C(O)C(C)O5)C(O)C(C)O4)c(C)c(O)c3c(O)c2C(=O)[C@H]1OC1CC(OC2CC(OC3CC(C)(O)C(O)C(C)O3)C(O)C(C)O2)C(O)C(C)O1 (stereo not given in full),T/C,"dose: 0.25 mg/kg/injection, schedule: Q01DX009 (ip), vehicle: saline",106 % of control
same,T/C,"dose: 0.5 mg/kg/injection, schedule: Q01DX009 (ip), vehicle: saline",100 % of control
same,T/C,"dose: 1.0 mg/kg/injection, schedule: Q01DX009 (ip), vehicle: saline",113 % of control
CS(=O)(=O)OCCCCOS(C)(=O)=O,T/C,"dose: 3.12 mg/kg/injection, schedule: Q01DX009 (ip), vehicle: saline",103 % of control
same,T/C,[12],96 % of control
same,T/C,[3],106 % of control
same,T/C,[4],103 % of control
O=NN(CCF)C(=O)NC1CCS(=O)(=O)CC1,T/C,"dose: 7.5 mg/kg/injection, schedule: Q01DX001 (ip), vehicle: saline",212 % of control
same,T/C,"dose: 15.0 mg/kg/injection, schedule: Q01DX001 (ip), vehicle: saline",200 % of control
same,T/C,"dose: 30.0 mg/kg/injection, schedule: Q01DX001 (ip), vehicle: saline",175 % of control
O=C(Nc1ccc(C2=NCCN2)cc1)c1ccc(C(=O)Nc2ccc(C3=NCCN3)cc2)cc1,T/C,"dose: 8.0 mg/kg/injection, schedule: Q01DX009 (ip), vehicle: saline",100 % of control
same,T/C,"dose: 16.0 mg/kg/injection, schedule: Q01DX009 (ip), vehicle: saline",92 % of control and 109 % of control
same,T/C,"dose: 32.0 mg/kg/injection, schedule: Q01DX009 (ip), vehicle: saline",92 % of control and 106 % of control
same,T/C,"dose: 64.0 mg/kg/injection, schedule: Q01DX009 (ip), vehicle: saline",96 % of control and 106 % of control
CC(=O)[C@@]1(O)CC[C@H]2[C@@H]3C[C@H](C)C4=CC(=O)C=C[C@]4(C)[C@@]3(F)[C@@H](O)C[C@@]21C,T/C,[3],105 % of control
same,T/C,"dose: 12.5 mg/kg/injection, schedule: Q01DX009 (sc), vehicle: steriod suspending solution",106 % of control
same,T/C,[4],105 % of control
same,T/C,"dose: 25.0 mg/kg/injection, schedule: Q01DX009 (sc), vehicle: steriod suspending solution",103 % of control
same,T/C,[13],100 % of control
same,T/C,[5],100 % of control
c1ccc2sc(SSN3CC4CCC(CC4)C3)nc2c1,T/C,[14],100 % of control
same,T/C,[1],94 % of control
same,T/C,[2],94 % of control
same,T/C,"dose: 100.0 mg/kg/injection, schedule: Q01DX009 (ip), vehicle: saline with Tween-80",89 % of control
same,T/C,"dose: 200.0 mg/kg/injection, schedule: Q01DX009 (ip), vehicle: saline with Tween-80",88 % of control
CCOC(N)=O,T/C,[8],100 % of control
same,T/C,[9],107 % of control
same,T/C,[10],100 % of control
NC(=O)Oc1cc(OC(N)=O)cc(N(CCCl)CCCl)c1,T/C,[3],110 % of control
same,T/C,[13],123 % of control
CC(CN1CC(=O)NC(=O)C1)N1CC(=O)NC(=O)C1 (stereo not given),T/C,[7],109 % of control
same,T/C,"dose: 60.0 mg/kg/injection, schedule: Q01DX009 (ip), vehicle: saline",90 % of control
OC1CCCC2CCC[N-]C12.OC1CCCC2CCC[N-]C12.[O]=[V][OH] (stereo not given),T/C,"dose: 6.25 mg/kg/injection, schedule: Q01DX009 (ip), vehicle: saline with Tween-80",107 % of control
same,T/C,[14],107 % of control
same,T/C,[1],107 % of control
Cn1cc(NC(=O)c2cc(NC(=O)CN=C(N)N)cn2C)cc1C(=O)NCCC(=N)N,T/C,[11],100 % of control and 107 % of control
same,T/C,[12],100 % of control and 107 % of control
same,T/C,[3],100 % of control
same,T/C,[4],86 % of control
Nc1ncnc2c1ccn2C1OC(CO)C(O)C1O (stereo not given),T/C,"dose: 0.32 mg/kg/injection, schedule: Q01DX009 (ip), vehicle: saline",93 % of control
same,T/C,"dose: 0.63 mg/kg/injection, schedule: Q01DX009 (ip), vehicle: saline",96 % of control
same,T/C,[6],100 % of control
